Results as given in PMC11669914, “Identification and characterization of a novel chromosome-encoded aminoglycoside O-nucleotidyltransferase gene, ant(9)-Id, in Providencia sp. TYF-12 isolated from the marine fish intestine” (Frontiers in Microbiology, 2024).
≈ marks a conversion by molar mass, not a printed value.

What was measured:
[1] = test system: T1, Enterococcus faecalis ATCC29212; test: microbe, parasite or virus in culture; design: CLSI agar dilution MIC, bacterial growth inhibition
T1 construct: ATCC 29212
Excerpt: (§1) In accordance with the standards of the Clinical and Laboratory Standards Institute (CLSI),^1 the agar dilution method was used to determine the minimum inhibitory concentration (MIC). E. coli ATCC 25922 served as a quality control for antibiotic susceptibility testing. The tested antimicrobial agents included spectinomycin, tobramycin, streptomycin, netilmicin, paromomycin and amikacin (Table 2).

[2] = test system: T2, Escherichia coli ACTT25922; test: microbe, parasite or virus in culture; design: CLSI agar dilution MIC, bacterial growth inhibition
T2 construct: ATCC 25922
Excerpt: as §1

[3] = test system: CN[C@@H]1[C@H](O)[C@H](NC)[C@H]2O[C@@]3(O)C(=O)C[C@@H](C)O[C@H]3O[C@@H]2[C@H]1O; test: purified protein; format: biochemical, Providencia rettgeri; conditions: 2 mM ATP, 10 mM MgCl2, 50 mM HEPES pH 7.5, 500 μM DTT, 37 °C

Row | Compound | MIC [1] [µg/mL] | MIC [2] [µg/mL] | Km [3] [µM] | kcat [3] [s⁻¹] | kcat/Km [3] [M⁻¹ s⁻¹]
1 | CN(C)[C@@H]1C(O)=C(C(N)=O)C(=O)[C@@]2(O)C(O)=C3C(=O)c4c(O)cccc4[C@@](C)(O)[C@H]3C[C@@H]12 [tetracycline] | 8 (≈ 18 µM) | 1 (≈ 2.25 µM) | – | – | –
2 | CN[C@@H]1[C@H](O[C@H]2[C@H](O[C@H]3[C@H](O)[C@@H](O)[C@H](N=C(N)N)[C@@H](O)[C@@H]3N=C(N)N)O[C@@H](C)[C@]2(O)C=O)O[C@@H](CO)[C@H](O)[C@H]1O [streptomycin] | 128 (≈ 220 µM) | 8 (≈ 13.8 µM) | – | – | –
3 | C=C[C@]1(C)C[C@@H](OC(=O)CSCCN(CC)CC)[C@]2(C)[C@H](C)CC[C@]3(CCC(=O)[C@H]32)[C@@H](C)[C@@H]1O [tiamulin] | 64 (≈ 130 µM) | > 512 | – | – | –
4 | CC(=O)c1c(C)[n+]([O-])c2ccccc2[n+]1[O-] [mequindox] | 64 (≈ 293 µM) | 8 (≈ 36.7 µM) | – | – | –
5 | C[C@H]1c2cccc(O)c2C(=O)C2=C(O)[C@]3(O)C(=O)C(C(N)=O)=C(O)[C@@H](N(C)C)[C@@H]3[C@@H](O)[C@@H]21 [doxycycline] | 4 (≈ 9 µM) | 1 (≈ 2.25 µM) | – | – | –
6 | ANT(9)-Id (Providencia rettgeri) | – | – | 8.94 ± 2.50 | 232 ± 59.8 | 2.62e+07 ± 2.95e+06
7 | O=C(N[C@H](CO)[C@H](O)c1ccc([N+](=O)[O-])cc1)C(Cl)Cl [chloramphenicol] | 4 (≈ 12.4 µM) | 4 (≈ 12.4 µM) | – | – | –
8 | CC(C)(O/N=C(\C(=O)N[C@@H]1C(=O)N2C(C(=O)[O-])=C(C[n+]3ccccc3)CS[C@H]12)c1csc(N)n1)C(=O)O [ceftazidime] | 128 (≈ 234 µM) | ≤ 1 | – | – | –
